# Laboratory results taken from ChEMBL document CHEMBL2010711, “Synthesis and comparative evaluation of 4-oxa- and 4-aza-podophyllotoxins as antiproliferative microtubule destabilizing agents” (Bioorg Med Chem Lett, 2012).
# Activity calls are given as the source filed them.
# Experiments:
# [1] = system: MCF7; assay: Cytotoxicity against human MCF7 cells after 48 hrs by trypan blue dye exclusion assay; type: functional; details: MCF7, 48 h
# [2] = system: SF-539; assay: Cytotoxicity against human SF539 cells after 48 hrs by trypan blue dye exclusion assay; type: functional; details: SF-539, 48 h
# [3] = system: Jurkat; assay: Cytotoxicity against human Jurkat cells; type: functional, cell-based
# [4] = system: NCI-H460; assay: Cytotoxicity against human NCI-H460 cells after 48 hrs by trypan blue dye exclusion assay; type: functional; details: NCI-H460, 48 h
# [5] = system: Paracentrotus lividus; assay: Microtubule destabilizing activity in Paracentrotus lividus embryo assessed as concentration required to cause 100% embryo spinning after 15 mins to 20 hrs; type: functional
# [6] = system: RXF 393; assay: Cytotoxicity against human RXF393 cells after 48 hrs by trypan blue dye exclusion assay; type: functional; details: RXF 393, 48 h
# [7] = system: M14; assay: Cytotoxicity against human M14 cells after 48 hrs by trypan blue dye exclusion assay; type: functional; details: M14, 48 h
# [8] = system: Paracentrotus lividus; assay: Antimitotic activity against Paracentrotus lividus embryo assessed as cleavage arrest at 2 fold less effective threshold concentration after 2.5 to 6 hrs; type: functional, organism-based
# [9] = system: UACC-62; assay: Cytotoxicity against human UACC62 cells after 48 hrs by trypan blue dye exclusion assay; type: functional; details: UACC-62, 48 h
# [10] = system: UACC-257; assay: Cytotoxicity against human UACC257 cells after 48 hrs by trypan blue dye exclusion assay; type: functional; details: UACC-257, 48 h
# [11] = system: MDA-MB-231; assay: Cytotoxicity against human MDA-MB-231 cells after 48 hrs by trypan blue dye exclusion assay; type: functional; details: MDA-MB-231, 48 h
# [12] = system: A498; assay: Cytotoxicity against human A498 cells after 48 hrs by trypan blue dye exclusion assay; type: functional; details: A498, 48 h
# [13] = system: SF-295; assay: Cytotoxicity against human SF295 cells after 48 hrs by trypan blue dye exclusion assay; type: functional; details: SF-295, 48 h
# [14] = system: MDA-MB-435; assay: Cytotoxicity against human MDA-MB-435 cells after 48 hrs by trypan blue dye exclusion assay; type: functional; details: MDA-MB-435, 48 h
# [15] = system: MOLT-4; assay: Cytotoxicity against human MOLT4 cells after 48 hrs by trypan blue dye exclusion assay; type: functional; details: MOLT-4, 48 h
# [16] = system: SR; assay: Cytotoxicity against human SR cells after 48 hrs by trypan blue dye exclusion assay; type: functional
structure (smiles),measurement,setting,value
COc1ccc2c(c1)OC1=C(C(=O)OC1)C2c1cc(OC)c2c(c1)OCO2 (stereo unspecified),GI50,[1],29.1 nM
same,GI50,[2],34.4 nM
same,IC50,[3],55 nM
same,GI50,[4],36.6 nM
same,EC,[5],100 nM
same,GI50,[6],17.8 nM
same,GI50,[7],23.3 nM
same,Activity,[8],inactive
same,GI50,[9],35 nM
same,GI50,[10],21300 nM
same,GI50,[11],61.4 nM
same,GI50,[12],27.2 nM
same,GI50,[13],20.2 nM
same,GI50,[14],< 10 nM
same,GI50,[15],65 nM
same,GI50,[16],37.8 nM
